Assay results from patent US8138168B1 (Takeda Pharmaceutical Company Limited, priority 2007, dated 2012).

Biological target: T1, Recombinant human renin (Homo sapiens, UniProt P00797)
T1 construct: isolate the active form (residues 67-406); made in house; host or cells: FreeStyle 293-F cells (transient expression of pcDNA3.1(+)/hREN)
T1 sequence (P00797 67-406): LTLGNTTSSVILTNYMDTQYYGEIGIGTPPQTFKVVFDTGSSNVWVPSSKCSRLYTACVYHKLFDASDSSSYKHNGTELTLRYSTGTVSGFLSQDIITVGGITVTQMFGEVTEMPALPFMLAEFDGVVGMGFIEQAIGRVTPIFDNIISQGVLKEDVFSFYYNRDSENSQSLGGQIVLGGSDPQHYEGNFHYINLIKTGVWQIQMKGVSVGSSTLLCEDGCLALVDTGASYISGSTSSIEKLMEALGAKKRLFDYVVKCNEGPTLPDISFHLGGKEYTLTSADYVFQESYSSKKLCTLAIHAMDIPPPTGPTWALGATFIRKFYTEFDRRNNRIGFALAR
Assay: In vitro enzymatic activity assay of renin inhibitors (fluorogenic peptide substrate)
Assay type: biochemical
Conditions: read-out: IC50 of Exemplified Compounds Against Renin
In short: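 Recombinant human renin (3 nM final) pre-incubated 10 min at 37 °C with compounds in pH 7.4 Hepes/EDTA/DTT/0.1 mg/mL BSA/Brij35 buffer (optionally plus 2% BSA), 5% DMSO final; fluorogenic QXL520/HiLyteFluo488 peptide substrate added.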

Structure (SMILES) | IC50 [µM]
COCCCn1c([C@@H]2CCCN(C(=O)C[C@@H](N)COc3ccccc3C(=O)OC)C2)nc2ccccc21 [Compound 432, methyl 2-((R)-2-amino-4-((R)-3-(1-(3-methoxypropyl)-1H-benzo[d]imidazol-2-yl)piperidin-1-yl)-4-oxobutoxy)benzoate] | > 1
CC(C)[C@H](N)C(=O)N1CCCC(c2nc3ccccc3[nH]2)C1 (stereo partly drawn) [Compound 47, (2S)-1-(3-(1H-benzo[d]imidazol-2-yl)piperidin-1-yl)-2-amino-3-methylbutan-1-one] | > 1
COCCCn1c([C@@H]2CCCN(C(=O)C[C@H](N)CNC(=O)C3CCCCC3)C2)nc2ccccc21 [Compound 326, N-((S)-2-amino-4-((R)-3-(1-(3-methoxypropyl)-1H-benzo[d]imidazol-2-yl)piperidin-1-yl)-4-oxobutyl)cyclohexanecarboxamide] | > 1
COCCCn1c([C@@H]2CCCN(C(=O)C[C@H](N)Cc3ccc4ccccc4c3)C2)nc2ccc([N+](=O)[O-])cc21 [Compound 114, (R)-3-amino-1-((R)-3-(1-(3-methoxypropyl)-6-nitro-1H-benzo[d]imidazol-2-yl)piperidin-1-yl)-4-(naphthalen-2-yl)butan-1-one] | > 1
COCCCn1c([C@@H]2CCCN(C(=O)[C@@H]3CN(C(=O)Nc4ccccc4)C[C@H]3N)C2)nc2ccccc21 [Compound 404, (3S,4R)-3-amino-4-((R)-3-(1-(3-methoxypropyl)-1H-benzo[d]imidazol-2-yl)piperidine-1-carbonyl)-N-phenylpyrrolidine-1-carboxamide] | > 1
N[C@H]1CCC[C@@H]1C(=O)N1CCCC(c2nc3ccccc3[nH]2)C1 (stereo partly drawn) [Compound 57, (3-(1H-benzo[d]imidazol-2-yl)piperidin-1-yl)((1S,2S)-2-aminocyclopentyl)methanone] | > 1
COCCCn1c([C@@H]2CCCN(C(=O)C[C@H](N)Cc3ccc(N4CCN(C(C)=O)CC4)cc3)C2)nc2ccccc21 [Compound 232, (R)-4-(4-(4-acetylpiperazin-1-yl)phenyl)-3-amino-1-((R)-3-(1-(3-methoxypropyl)-1H-benzo[d]imidazol-2-yl)piperidin-1-yl)butan-1-one] | 0.1 to 1
CC(=O)NCCn1c([C@@H]2CCCN(C(=O)C[C@H](N)Cc3ccc(-c4ccnc(O)c4)cc3)C2)nc2ccccc21 [Compound 461, N-(2-(2-((R)-1-((R)-3-amino-4-(4-(2-hydroxypyridin-4-yl)phenyl)butanoyl)piperidin-3-yl)-1H-benzo[d]imidazol-1-yl)ethyl)acetamide] | 0.1 to 1
COCCCn1c([C@@H]2CCCN(C(=O)[C@@H]3CN(C(=O)c4ccccc4Cl)C[C@H]3N)C2)nc2ccccc21 [Compound 398, ((3R,4S)-4-amino-1-(2-chlorobenzoyl)pyrrolidin-3-yl)((R)-3-(1-(3-methoxypropyl)-1H-benzo[d]imidazol-2-yl)piperidin-1-yl)methanone] | > 1
COCCCn1c([C@@H]2CCCN(C(=O)CC(N)C3CCNCC3)C2)nc2ccccc21 (stereo partly drawn) [Compound 94, 3-amino-1-((R)-3-(1-(3-methoxypropyl)-1H-benzo[d]imidazol-2-yl)piperidin-1-yl)-3-(piperidin-4-yl)propan-1-one] | > 1
COCCCn1c([C@H]2CCCN(C(=O)C[C@@H](N)Cc3ccc(Cl)cc3)C2)nc2ccccc21 [Compound 70, (S)-3-amino-4-(4-chlorophenyl)-1-((S)-3-(1-(3-methoxypropyl)-1H-benzo[d]imidazol-2-yl)piperidin-1-yl)butan-1-one] | > 1
COCCCn1c([C@@H]2CCCN(C(=O)C[C@H](N)CNC(=O)c3ccc(-c4cccc([N+](=O)[O-])c4)o3)C2)nc2ccccc21 [Compound 297, N-((S)-2-amino-4-((R)-3-(1-(3-methoxypropyl)-1H-benzo[d]imidazol-2-yl)piperidin-1-yl)-4-oxobutyl)-5-(3-nitrophenyl)furan-2-carboxamide] | 0.1 to 1

Next, values leading:

IC50 [µM] | Structure (SMILES)
< 0.1 | COCCCn1c([C@@H]2CCCN(C(=O)C[C@H](N)Cc3ccc(-c4ccc(NC(=O)N(C)C)cc4)cc3)C2)nc2ccccc21 [Compound 174, 3-(4′-((R)-2-amino-4-((R)-3-(1-(3-methoxypropyl)-1H-benzo[d]imidazol-2-yl)piperidin-1-yl)-4-oxobutyl)biphenyl-4-yl)-1,1-dimethylurea]
< 0.1 | COCCCn1c([C@@H]2CCCN(C(=O)C[C@H](N)Cc3ccc(-c4ccc(OC)cc4)cc3)C2)nc2c(F)cccc21 [Compound 492, (R)-3-amino-1-((R)-3-(4-fluoro-1-(3-methoxypropyl)-1H-benzo[d]imidazol-2-yl)piperidin-1-yl)-4-(4′-methoxybiphenyl-4-yl)butan-1-one]
0.1 to 1 | COCCCn1c(C2CCCN(C(=O)C[C@H](N)Cc3ccc4ccccc4c3)C2)nc2ccc(CO)cc21 (stereo partly drawn) [Compound 113, (3R)-3-amino-1-(3-(6-(hydroxymethyl)-1-(3-methoxypropyl)-1H-benzo[d]imidazol-2-yl)piperidin-1-yl)-4-(naphthalen-2-yl)butan-1-one]
0.1 to 1 | COCCCn1c([C@@H]2CCCN(C(=O)[C@@H]3CN(S(=O)(=O)c4cc(Cl)c(Cl)cc4Cl)C[C@H]3N)C2)nc2ccccc21 [Compound 345, ((3R,4S)-4-amino-1-(2,4,5-trichlorophenylsulfonyl)pyrrolidin-3-yl)((R)-3-(1-(3-methoxypropyl)-1H-benzo[d]imidazol-2-yl)piperidin-1-yl)methanone]
0.1 to 1 | COCCCn1c([C@@H]2CCCN(C(=O)[C@@H]3CN(S(=O)(=O)c4ccc(N5CCCC5=O)cc4)C[C@H]3N)C2)nc2ccccc21 [Compound 382, 1-(4-((3S,4R)-3-amino-4-((R)-3-(1-(3-methoxypropyl)-1H-benzo[d]imidazol-2-yl)piperidine-1-carbonyl)pyrrolidin-1-ylsulfonyl)phenyl)pyrrolidin-2-one]
0.1 to 1 | COCCCn1c([C@@H]2CCCN(C(=O)[C@@H]3CN(C(=O)Nc4cccc(OC)c4)C[C@H]3N)C2)nc2ccccc21 [Compound 367, (3S,4R)-3-amino-N-(3-methoxyphenyl)-4-((R)-3-(1-(3-methoxypropyl)-1H-benzo[d]imidazol-2-yl)piperidine-1-carbonyl)pyrrolidine-1-carboxamide]
0.1 to 1 | COCCCn1c([C@@H]2CCCN(C(=O)C[C@H](N)CNC(=O)c3cccc(OC)c3)C2)nc2ccccc21 [Compound 310, N-((S)-2-amino-4-((R)-3-(1-(3-methoxypropyl)-1H-benzo[d]imidazol-2-yl)piperidin-1-yl)-4-oxobutyl)-3-methoxybenzamide]
0.1 to 1 | COCCCn1c([C@@H]2CCCN(C(=O)C[C@H](N)CNC(=O)c3ccc(-c4cccc(Cl)c4Cl)o3)C2)nc2ccccc21 [Compound 277, N-((S)-2-amino-4-((R)-3-(1-(3-methoxypropyl)-1H-benzo[d]imidazol-2-yl)piperidin-1-yl)-4-oxobutyl)-5-(2,3-dichlorophenyl)furan-2-carboxamide]
0.1 to 1 | COCCCn1c([C@@H]2CCCN(C(=O)C[C@H](N)CNC(=O)Nc3ccc(OC)cc3OC)C2)nc2ccccc21 [Compound 279, 1-((S)-2-amino-4-((R)-3-(1-(3-methoxypropyl)-1H-benzo[d]imidazol-2-yl)piperidin-1-yl)-4-oxobutyl)-3-(2,4-dimethoxyphenyl)urea]
< 0.1 | COCCCn1c([C@@H]2CCCN(C(=O)C[C@H](N)CNC(=O)c3ccc(-c4ccccc4)s3)C2)nc2ccccc21 [Compound 252, N-((S)-2-amino-4-((R)-3-(1-(3-methoxypropyl)-1H-benzo[d]imidazol-2-yl)piperidin-1-yl)-4-oxobutyl)-5-phenylthiophene-2-carboxamide]
0.1 to 1 | COCCCn1c([C@@H]2CCCN(C(=O)C[C@H](N)CNC(=O)Nc3ccccc3)C2)nc2ccccc21 [Compound 269, 1-((S)-2-amino-4-((R)-3-(1-(3-methoxypropyl)-1H-benzo[d]imidazol-2-yl)piperidin-1-yl)-4-oxobutyl)-3-phenylurea]
< 0.1 | COCCCn1c([C@@H]2CCCN(C(=O)C[C@H](N)Cc3ccc(-n4c(=O)n(CCO)c5ccccc54)cc3)C2)nc2ccccc21 [Compound 222, 1-(4-((R)-2-amino-4-((R)-3-(1-(3-methoxypropyl)-1H-benzo[d]imidazol-2-yl)piperidin-1-yl)-4-oxobutyl)phenyl)-3-(2-hydroxyethyl)-1H-benzo[d]imidazol-2(3H)-one]
0.1 to 1 | COCCCn1c([C@@H]2CCCN(C(=O)CC(O)Cc3ccc(-c4ccccc4)cc3)C2)nc2ccccc21 (stereo in doubt) [Compound 73, (R)-4-(Biphenyl-4-yl)-3-hydroxy-1-(3-(1-(3-methoxypropyl)-1H-benzo[d]imidazol-2-yl)piperidin-1-yl)butan-1-one]
< 0.1 | COCCCn1c([C@@H]2CCCN(C(=O)C[C@H](N)CNC(=O)c3ccc4ccccc4c3)C2)nc2ccccc21 [Compound 249, N-((S)-2-amino-4-((R)-3-(1-(3-methoxypropyl)-1H-benzo[d]imidazol-2-yl)piperidin-1-yl)-4-oxobutyl)-2-naphthamide]
< 0.1 | COCCCn1c([C@@H]2CCCN(C(=O)C[C@H](N)Cc3ccc(-c4ccc(C(=O)NCCO)nc4)cc3)C2)nc2ccccc21 [Compound 194, 5-(4-((R)-2-Amino-4-((R)-3-(1-(3-methoxypropyl)-1H-benzo[d]imidazol-2-yl)piperidin-1-yl)-4-oxobutyl)phenyl)-N-(2-hydroxyethyl)picolinamide]
